ChEMBL document CHEMBL1201862, “PubChem BioAssay data set” (2004)
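Results reflect a 48-hour exposure of cells in 96-well plates to compound at five concentrations. GI50 marks 50% less growth.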 Calls of active or inactive are those of the source. Rule as the data show it: active = GI50 up to about 1.1 µM and inactive = higher.

Tests used:
Test in all cases: NCI anticancer screen, dose series, 48 h
CCRF-CEM = system: CCRF-CEM
PC-3 = system: PC-3
SK-MEL-2 = system: SK-MEL-2
DU-145 = system: DU-145
HCC 2998 = system: HCC 2998
HL-60 = system: HL-60
HCT-15 = system: HCT-15
SN12C = system: SN12C
M14 = system: M14
786-0 = system: 786-0
MDA-MB-435 = system: MDA-MB-435
ACHN = system: ACHN
SW-620 = system: SW-620
OVCAR-4 = system: OVCAR-4
U-251 = system: U-251
OVCAR-8 = system: OVCAR-8
COLO 205 = system: COLO 205
HOP-92 = system: HOP-92
SK-MEL-5 = system: SK-MEL-5
RPMI-8226 = system: RPMI-8226
KM12 = system: KM12
NCI-H460 = system: NCI-H460
SR = system: SR
NCI/ADR-RES = system: NCI/ADR-RES
UACC-257 = system: UACC-257
EKVX = system: EKVX
NCI-H522 = system: NCI-H522
NCI-H23 = system: NCI-H23
A498 = system: A498
T47D = system: T47D
SK-OV-3 = system: SK-OV-3
MDA-N = system: MDA-N
SF-295 = system: SF-295
HOP-62 = system: HOP-62
TK-10 = system: TK-10
OVCAR-3 = system: OVCAR-3
CAKI-1 = system: CAKI-1
HT-29 = system: HT-29
MCF7 = system: MCF7
K562 = system: K562
SNB-19 = system: SNB-19
HCT-116 = system: HCT-116
UACC-62 = system: UACC-62
NCI-H226 = system: NCI-H226
A549 = system: A549
UO-31 = system: UO-31
MDA-MB-231 = system: MDA-MB-231
MOLT-4 = system: MOLT-4
IGROV-1 = system: IGROV-1
SK-MEL-28 = system: SK-MEL-28
LOX IMVI = system: LOX IMVI
OVCAR-5 = system: OVCAR-5
SNB-75 = system: SNB-75
Malme-3M = system: Malme-3M
SF-268 = system: SF-268
SF-539 = system: SF-539

SMILES: CN(C(=O)C1=CCC2(CC1)OCCO2)c1ccccc1I
- GI50 (CCRF-CEM): > 100 µM (inactive)
- GI50 (PC-3): > 100 µM (inactive)
- GI50 (SK-MEL-2): > 100 µM (inactive)
- GI50 (DU-145): > 100 µM (inactive)
- GI50 (HCC 2998): > 100 µM (inactive)
- GI50 (HL-60): 96.6 µM (inactive)
- GI50 (HCT-15): > 100 µM
- GI50 (SN12C): > 100 µM (inactive)
- GI50 (M14): > 100 µM (inactive)
- GI50 (786-0): > 100 µM (inactive)
- GI50 (MDA-MB-435): > 100 µM (inactive)
- GI50 (ACHN): > 100 µM (inactive)
- GI50 (SW-620): > 100 µM (inactive)
- GI50 (OVCAR-4): > 100 µM (inactive)
- GI50 (U-251): > 100 µM (inactive)
- GI50 (OVCAR-8): > 100 µM (inactive)
- GI50 (COLO 205): > 100 µM (inactive)
- GI50 (HOP-92): > 100 µM (inactive)
- GI50 (SK-MEL-5): > 100 µM (inactive)
- GI50 (RPMI-8226): > 100 µM (inactive)
- GI50 (KM12): > 100 µM (inactive)
- GI50 (NCI-H460): > 100 µM (inactive)
- GI50 (SR): > 100 µM (inactive)
- GI50 (NCI/ADR-RES): > 100 µM (inactive)
- GI50 (UACC-257): > 100 µM (inactive)
- GI50 (EKVX): > 100 µM (inactive)
- GI50 (NCI-H522): > 100 µM (inactive)
- GI50 (NCI-H23): > 100 µM (inactive)
- GI50 (A498): > 100 µM (inactive)
- GI50 (T47D): > 100 µM (inactive)
- GI50 (SK-OV-3): > 100 µM (inactive)
- GI50 (MDA-N): > 100 µM (inactive)
- GI50 (SF-295): > 100 µM (inactive)
- GI50 (HOP-62): > 100 µM (inactive)
- GI50 (TK-10): > 100 µM (inactive)
- GI50 (OVCAR-3): > 100 µM (inactive)
- GI50 (CAKI-1): > 100 µM (inactive)
- GI50 (HT-29): > 100 µM (inactive)
- GI50 (MCF7): > 100 µM (inactive)
- GI50 (K562): > 100 µM (inactive)
- GI50 (SNB-19): > 100 µM (inactive)
- GI50 (HCT-116): > 100 µM (inactive)
- GI50 (UACC-62): > 100 µM (inactive)
- GI50 (NCI-H226): > 100 µM (inactive)
- GI50 (A549): > 100 µM (inactive)
- GI50 (UO-31): > 100 µM (inactive)
- GI50 (MDA-MB-231): > 100 µM (inactive)
- GI50 (MOLT-4): > 100 µM (inactive)
- GI50 (IGROV-1): > 100 µM (inactive)
- GI50 (SK-MEL-28): > 100 µM (inactive)
- GI50 (LOX IMVI): > 100 µM (inactive)
- GI50 (OVCAR-5): > 100 µM (inactive)
- GI50 (SNB-75): > 100 µM (inactive)

SMILES: COc1ccc2cc(C(=O)Nc3ccc(O)c(C(=O)O)c3)ccc2c1OC
- GI50 (CCRF-CEM): > 100 µM (inactive)
- GI50 (PC-3): > 100 µM (inactive)
- GI50 (SK-MEL-2): > 100 µM (inactive)
- GI50 (DU-145): > 100 µM (inactive)
- GI50 (HCC 2998): > 100 µM (inactive)
- GI50 (HL-60): > 100 µM (inactive)
- GI50 (HCT-15): > 100 µM
- GI50 (SN12C): > 100 µM (inactive)
- GI50 (M14): > 100 µM (inactive)
- GI50 (786-0): > 100 µM (inactive)
- GI50 (MDA-MB-435): > 100 µM (inactive)
- GI50 (ACHN): > 100 µM (inactive)
- GI50 (SW-620): > 100 µM (inactive)
- GI50 (OVCAR-4): 72.6 µM (inactive)
- GI50 (U-251): > 100 µM (inactive)
- GI50 (OVCAR-8): > 100 µM (inactive)
- GI50 (SK-MEL-5): > 100 µM (inactive)
- GI50 (RPMI-8226): > 100 µM (inactive)
- GI50 (KM12): > 100 µM (inactive)
- GI50 (NCI-H460): > 100 µM (inactive)
- GI50 (SR): > 100 µM (inactive)
- GI50 (NCI/ADR-RES): > 100 µM (inactive)
- GI50 (UACC-257): > 100 µM (inactive)
- GI50 (EKVX): > 100 µM (inactive)
- GI50 (NCI-H522): 49.4 µM (inactive)
- GI50 (NCI-H23): > 100 µM (inactive)
- GI50 (T47D): > 100 µM (inactive)
- GI50 (Malme-3M): > 100 µM (inactive)
- GI50 (SK-OV-3): > 100 µM (inactive)
- GI50 (MDA-N): > 100 µM (inactive)
- GI50 (HOP-62): > 100 µM (inactive)
- GI50 (TK-10): > 100 µM (inactive)
- GI50 (OVCAR-3): > 100 µM (inactive)
- GI50 (CAKI-1): > 100 µM (inactive)
- GI50 (HT-29): > 100 µM (inactive)
- GI50 (MCF7): > 100 µM (inactive)
- GI50 (K562): > 100 µM (inactive)
- GI50 (SNB-19): > 100 µM (inactive)
- GI50 (HCT-116): > 100 µM (inactive)
- GI50 (UACC-62): > 100 µM (inactive)
- GI50 (NCI-H226): > 100 µM (inactive)
- GI50 (UO-31): > 100 µM (inactive)
- GI50 (SF-268): > 100 µM (inactive)
- GI50 (MDA-MB-231): > 100 µM (inactive)
- GI50 (SF-539): > 100 µM (inactive)
- GI50 (MOLT-4): > 100 µM (inactive)
- GI50 (IGROV-1): > 100 µM (inactive)
- GI50 (SK-MEL-28): > 100 µM (inactive)
- GI50 (LOX IMVI): > 100 µM (inactive)
- GI50 (OVCAR-5): > 100 µM (inactive)
- GI50 (SNB-75): > 100 µM (inactive)

SMILES: CS/C(=N\S(=O)(=O)c1ccc(Cl)cc1)NCCCCN/C(=N/S(=O)(=O)c1ccc(Cl)cc1)SC
- GI50 (CCRF-CEM): > 100 µM (inactive)
- GI50 (PC-3): > 100 µM (inactive)
- GI50 (SK-MEL-2): > 100 µM (inactive)
- GI50 (DU-145): > 100 µM (inactive)
- GI50 (HCC 2998): > 100 µM (inactive)
- GI50 (HL-60): > 100 µM (inactive)
- GI50 (HCT-15): > 100 µM
- GI50 (SN12C): > 100 µM (inactive)
- GI50 (M14): > 100 µM (inactive)
- GI50 (786-0): 44.5 µM (inactive)
- GI50 (MDA-MB-435): > 100 µM (inactive)
- GI50 (ACHN): > 100 µM (inactive)
- GI50 (SW-620): > 100 µM (inactive)
- GI50 (OVCAR-4): > 100 µM (inactive)
- GI50 (U-251): 69.5 µM (inactive)
- GI50 (OVCAR-8): 75.3 µM (inactive)
- GI50 (COLO 205): > 100 µM (inactive)
- GI50 (HOP-92): 60.1 µM (inactive)
- GI50 (RPMI-8226): > 100 µM (inactive)
- GI50 (NCI-H460): > 100 µM (inactive)
- GI50 (SR): > 100 µM (inactive)
- GI50 (NCI/ADR-RES): > 100 µM (inactive)
- GI50 (UACC-257): > 100 µM (inactive)
- GI50 (EKVX): > 100 µM (inactive)
- GI50 (A498): 32.6 µM (inactive)
- GI50 (T47D): > 100 µM (inactive)
- GI50 (Malme-3M): > 100 µM (inactive)
- GI50 (MDA-N): > 100 µM (inactive)
- GI50 (SF-295): > 100 µM (inactive)
- GI50 (HOP-62): > 100 µM (inactive)
- GI50 (TK-10): > 100 µM (inactive)
- GI50 (OVCAR-3): > 100 µM (inactive)
- GI50 (CAKI-1): > 100 µM (inactive)
- GI50 (HT-29): > 100 µM (inactive)
- GI50 (MCF7): > 100 µM (inactive)
- GI50 (K562): > 100 µM (inactive)
- GI50 (SNB-19): > 100 µM (inactive)
- GI50 (HCT-116): > 100 µM (inactive)
- GI50 (UACC-62): > 100 µM (inactive)
- GI50 (UO-31): > 100 µM (inactive)
- GI50 (SF-268): 32.5 µM (inactive)
- GI50 (MDA-MB-231): > 100 µM (inactive)
- GI50 (SF-539): > 100 µM (inactive)
- GI50 (MOLT-4): > 10 µM (inactive)
- GI50 (IGROV-1): 83 µM (inactive)
- GI50 (SK-MEL-28): 95.3 µM (inactive)
- GI50 (LOX IMVI): > 100 µM (inactive)
- GI50 (OVCAR-5): > 100 µM (inactive)
- GI50 (SNB-75): > 10 µM (inactive)
